Data on 13 molecules can be found in patent publication US11603355B2, “Charged ion channel blockers and methods for use” (Nocion Therapeutics, Inc., priority 2019, dated 2023).

Structures can show the parent of a compound that is named as a salt.

For data set [1], the target named is T1, NaV1.7 (Homo sapiens, UniProt Q15858).
T1 construct: expressed in transfected cells; host or cells: HEK293 (tetracycline-inducible)
As to the kind of experiment: Automated patch clamp (Qube 384), internal block of NaV1.7. It is filed as cell-based. The following applies: IC50, compound in internal solution, HEK293 cells, read-out: Nav1.7 Intracellular Inhibition. The protocol:
(§1) NaV1.7 was expressed in HEK293 cells upon induction with tetracycline. Cells were cultured in DMEM containing 10% dialyzed Fetal Bovine Serum (VWR, Radnor, Pa.), 1% Glutamax (VWR, Radnor, Pa.), 1% Penicillin-Streptomycin (VWR, Radnor, Pa.), 100 mg/L Hygromycin (Thermo Fisher Scientific, Waltham, Mass. and 5 mg/L Blasticidin (Alfa Aesar, Haverhill, Mass.). Cells were grown and maintained at 37° C. in a humidified environment containing 10% CO2 in air. Cells were detached from the culture flask for passage and harvested using 0.05% Trypsin-EDTA (Thermo Fisher Scientific, Waltham, Mass.). To induce NaV1.7, cells were induced with tetracycline (0.1-1 μg/mL, IBI Scientific, Peosta, Iowa) the day before recording.
(§2) Before experiments, cells were washed with DPBS (VWR, Radnor, Pa.), digested with Detachin (VWR Radnor, Pa.) and then triturated 10 times in CHO Serum-Free Media (VWR Radnor, Pa.) to resuspend the cells and to break apart cell aggregates. Cells were counted and the final concentration was set at 2-5 million cells per mL.
(§3) The intracellular solution contained the following: 140 mM CsF, 1 mM/5 mM EGTA/CsOH, 10 mM HEPES, 10 mM NaCl, adjusted to pH 7.3 with CsOH, and osmolality to 320 with OSM solution. The external solution contained the following: 145 mM NaCl, 4 mM KCl, 1 mM MgCl2, 2 mM CaCl2), 10 mM HEPES, 10 mM Glucose, adjusted to pH 7.4 with CsOH and osmolality to 305 with OSM solution. The OSM solution was a normal Ringer solution containing (in mM) NaCl 155, HEPES 10, sucrose, KCl 3.5, CaCl2) 1.5, MgCl2 1 adjusted to pH 7.4 with NaOH. All chemicals are from Sigma-Aldrich, St. Louis, Mo. In order to test the degree of internal block by test compounds, the compounds were dissolved in internal solution at the indicated test concentration. […] In order to test the degree of external block by test compounds the compounds were dissolved in external solution at the indicated test concentration.
(§4) Automated Patch Clamps were performed on Qube 384 (Sophion Bioscience, Woburn Mass.) with multihole Qchips at a temperature setting of 22 degrees. The whole cells configuration was formed with default Qube seal and break-in parameter. The membrane potential was held at −100 mV before the voltage protocol began. Two voltage protocols were followed.
(§5) Step 1: Cells were held at −100 mV with a depolarized pulse to −20 mV for 10 ms, the interval was set at 5 s. Currents were corrected by default leak subtraction from every pulse. The duration was set at 5 mins.
(§6) Step 2: Cells were held at −100 mV with a depolarized pulse to −20 mV for 10 ms. The frequency was 5 Hz. Currents were corrected by leak subtraction calculated before step 2. The duration was set at 4 mins.
After Step 2, the Qchip was removed from the recording chamber. The internal solution was changed with solutions containing test compounds. Qchips were held at −100 mV without pulsing after being replaced in the recording chamber. The total solution switching time was 8 minutes. After the internal solution exchange, Cells were recorded and step 2 for repeated for 10 minutes.
Data analysis was performed by Sophion Analyzer. Cells were filtered with minimum 50 MOhm seal resistance and minimum 5 nA starting current. The rundown of the currents was corrected with control cells (Non-Drug). The remaining was calculated by averaging last 3 points in the end of experiments. The base line was calculated as the average of last 3 points of Step 2.
IC50 curves were plotted with DR-plots/Hill function (a dose-response plot with a Hill fit).
Representative examples of the invention were tested for intracellular inhibition of NaV 1.7 in the automated patch clamp assay. Activity Range is reported as IC50: “++++” (<0.3 μM), “+++” (0.3-1 μM), “++” (1-3 μM) or “+” (3-10 μM).

Data set [2] has as its target T1, NaV1.7. As to the kind of experiment: Automated patch clamp (Qube 384), external block of NaV1.7. It is filed as cell-based. The following applies: IC50, compound in external solution, HEK293 cells, read-out: Nav1.7 Extracellular Inhibition. The protocol:
as §1, §2, §3, §4, §5, §6
After Step 2, the external solution was changed with solutions containing test compounds. Qchips were held at −100 mV without pulsing. The total solution switching time was 8 minutes. After the external solution exchange, cells were recorded using the same procedure as step 2 for 10 minutes.
Data analysis was performed by Sophion Analyzer. Data were corrected with control cells (Non-Drug). The IC50 data were plotted with DR-plots/Hill function (a dose-response plot with a Hill fit). Representative examples of the invention were tested for extracellular inhibition of NaV 1.7 in the automated patch clamp assay. Activity Range is reported as IC50: “++++” ([…], “+++” (1-3 μM), “++” ([…]) or “+” (>10 μM). The results are presented below.
For orientation: Patch clamp records ionic current or voltage across a cell membrane.

Data set [3] in a line: PAMPA membrane permeability assay. It is filed as in vitro ADME. The following applies: permeability coefficient, pH 7.4 buffer, GIT lipid, 4 hours incubation. The protocol: The PAMPA assay (pION, Inc., Woburn Mass.) was used to determine the ability of compounds of the invention to cross an artificial lipid membrane by passive diffusion. Test compounds were dissolved in DMSO (10 mM) and diluted 200-fold in buffer (pION Inc., pH 7.4) to provide 50 uM stock solutions. Buffer (150 μL) was added to a UV blank plate and stock solutions (150 μL) were transferred to a UV reference plate. The blank and reference spectrum were read using a spectrophotometer. Stock solutions (200 μL) were added to the donor plate of the PAMPA sandwich plate and an accept plate painted with GIT lipid (pION Inc, 5) was placed on top. Buffer (200 μL) was added to the acceptor plate and the PAMPA sandwich plate was incubated for 4 hours. Aliquots (150 μL) from the acceptor plate were added to a UV plate and read as acceptor spectrum. Aliquots (150 μL) of the donor solutions were added to a UV analysis plate and read as donor spectrum. The permeability coefficient of test compounds was calculated using PAMPA Explorer™ software (version 3.5.0.4) based on the AUC of the reference plate, the donor plate, and the acceptor plate.
The PAMPA permeability results (10^−6 cm/s) of representative compounds are reported as “+” (<0.1 10^−6 cm/s), “++” (0.1-2.0 10^−6 cm/s), “+++” (2.0-10.010^−6 cm/s) or “++++” (>10.0 10^−6 cm/s).

Data set [4] has as its target T1, NaV1.7. Description: Manual patch clamp, internal block of NaV1.7 current. It is filed as cell-based. The settings on record: compound in internal solution, HEK293 cells, read-out: Nav1.7 Intracellular Inhibition; for inhibition at 3 µM: % inhibition at 3 μM test concentration. The method, then:
Representative compounds of the invention were synthesized according to the described methods and tested for the ability to inhibit voltage-gated sodium channels.
as §1, with “recording and plated onto 24-well plates. Cells were washed with DPBS (VWR, Radnor, Pa.), trypsinized and then triturated five times in 10 mL of growth media to break apart cell aggregates. For one 24-well plate, 2 mL of cell suspension was mixed with 23 mL of fresh growth media and 0.1-1 μg/mL tetracycline added. 1 ml of mixed media with cells was then added to each well of a 24-well plate, with a 12 mm coverslip already placed in the bottom of the well. Cells were then incubated in 37° C. and 10% CO2 overnight.” for “recording.”
The intracellular solution contained the following (in mM) CsCl 135, NaCl 10, EGTA 10, HEPES 10, MgCl2 2, adjusted to pH 7.2 with CsOH. The external solution was a normal Ringer solution containing (in mM) NaCl 155, HEPES 10, glucose 10, KCl 3.5, CaCl2 1.5, MgCl2 1 adjusted to pH 7.4 with NaOH. CsCl is from Alfa Aesar, Haverhill, Mass. All other chemicals are from Sigma-Aldrich, St. Louis, Mo. In order to test the degree of internal block by test compounds the compounds were dissolved in internal solution at the indicated test concentration. […] In order to test the degree of external block by test compounds the compounds were dissolved in external solution at the indicated test concentration.
18-24 hours after cells were induced with tetracycline, coverslips were placed into a chamber filled with Normal Ringer solution at room temperature and the chamber placed on a microscope. Pipettes were pulled from borosilicate glass on a P97 puller (Sutter Instrument, Novato, Calif.) and polished with a MF-830 Microforge (Narishige International USA, Inc., Amityville, N.Y.) to have a resistance of 1.5-2.5 MΩ when filled with CsCl internal solution at room temperature. Healthy cells (those that are round and translucent with no visible blemishes) were chosen for seal formation. A seal was formed between the pipette and the cell, and a brief pulse of suction was used to “break in” and establish the whole-cell configuration. The membrane potential was held at −100 mV before the voltage protocol began. Only cells with series resistance between 1.5-5 MΩ were retained for analysis. The voltage protocol was as follows: Cells were held at −100 mV for 12 ms followed by a hyperpolarizing step to −105 mV for 12 ms to monitor the leak. Cells were then stepped back to −100 mV for 40 ms. Cells were then depolarized to −20 mV for 10 ms and then returned to −100 mV for 26 ms.
Once the recording was started, the voltage protocol was run at 30 second intervals for 5 minutes to get a stable baseline. This was followed by four 30-second periods of 5 Hz stimulation of the same voltage protocol separated by 1 minute of rest which was then followed by 0.33 Hz stimulation after the last train. Currents were recorded using PatchMaster software with Heka EPC10 (HEKA Electronics, Lambrecht, Germany). Only cells with inward current amplitudes at −20 mV between 400 pA and 4 nA were accepted. In addition, cells having leak currents greater than 10% of their current amplitudes were discarded. […]

As a reminder, the inhibition is the change of the read-out against control, counted positive when it falls.

T1 sequence (Q15858 whole entry): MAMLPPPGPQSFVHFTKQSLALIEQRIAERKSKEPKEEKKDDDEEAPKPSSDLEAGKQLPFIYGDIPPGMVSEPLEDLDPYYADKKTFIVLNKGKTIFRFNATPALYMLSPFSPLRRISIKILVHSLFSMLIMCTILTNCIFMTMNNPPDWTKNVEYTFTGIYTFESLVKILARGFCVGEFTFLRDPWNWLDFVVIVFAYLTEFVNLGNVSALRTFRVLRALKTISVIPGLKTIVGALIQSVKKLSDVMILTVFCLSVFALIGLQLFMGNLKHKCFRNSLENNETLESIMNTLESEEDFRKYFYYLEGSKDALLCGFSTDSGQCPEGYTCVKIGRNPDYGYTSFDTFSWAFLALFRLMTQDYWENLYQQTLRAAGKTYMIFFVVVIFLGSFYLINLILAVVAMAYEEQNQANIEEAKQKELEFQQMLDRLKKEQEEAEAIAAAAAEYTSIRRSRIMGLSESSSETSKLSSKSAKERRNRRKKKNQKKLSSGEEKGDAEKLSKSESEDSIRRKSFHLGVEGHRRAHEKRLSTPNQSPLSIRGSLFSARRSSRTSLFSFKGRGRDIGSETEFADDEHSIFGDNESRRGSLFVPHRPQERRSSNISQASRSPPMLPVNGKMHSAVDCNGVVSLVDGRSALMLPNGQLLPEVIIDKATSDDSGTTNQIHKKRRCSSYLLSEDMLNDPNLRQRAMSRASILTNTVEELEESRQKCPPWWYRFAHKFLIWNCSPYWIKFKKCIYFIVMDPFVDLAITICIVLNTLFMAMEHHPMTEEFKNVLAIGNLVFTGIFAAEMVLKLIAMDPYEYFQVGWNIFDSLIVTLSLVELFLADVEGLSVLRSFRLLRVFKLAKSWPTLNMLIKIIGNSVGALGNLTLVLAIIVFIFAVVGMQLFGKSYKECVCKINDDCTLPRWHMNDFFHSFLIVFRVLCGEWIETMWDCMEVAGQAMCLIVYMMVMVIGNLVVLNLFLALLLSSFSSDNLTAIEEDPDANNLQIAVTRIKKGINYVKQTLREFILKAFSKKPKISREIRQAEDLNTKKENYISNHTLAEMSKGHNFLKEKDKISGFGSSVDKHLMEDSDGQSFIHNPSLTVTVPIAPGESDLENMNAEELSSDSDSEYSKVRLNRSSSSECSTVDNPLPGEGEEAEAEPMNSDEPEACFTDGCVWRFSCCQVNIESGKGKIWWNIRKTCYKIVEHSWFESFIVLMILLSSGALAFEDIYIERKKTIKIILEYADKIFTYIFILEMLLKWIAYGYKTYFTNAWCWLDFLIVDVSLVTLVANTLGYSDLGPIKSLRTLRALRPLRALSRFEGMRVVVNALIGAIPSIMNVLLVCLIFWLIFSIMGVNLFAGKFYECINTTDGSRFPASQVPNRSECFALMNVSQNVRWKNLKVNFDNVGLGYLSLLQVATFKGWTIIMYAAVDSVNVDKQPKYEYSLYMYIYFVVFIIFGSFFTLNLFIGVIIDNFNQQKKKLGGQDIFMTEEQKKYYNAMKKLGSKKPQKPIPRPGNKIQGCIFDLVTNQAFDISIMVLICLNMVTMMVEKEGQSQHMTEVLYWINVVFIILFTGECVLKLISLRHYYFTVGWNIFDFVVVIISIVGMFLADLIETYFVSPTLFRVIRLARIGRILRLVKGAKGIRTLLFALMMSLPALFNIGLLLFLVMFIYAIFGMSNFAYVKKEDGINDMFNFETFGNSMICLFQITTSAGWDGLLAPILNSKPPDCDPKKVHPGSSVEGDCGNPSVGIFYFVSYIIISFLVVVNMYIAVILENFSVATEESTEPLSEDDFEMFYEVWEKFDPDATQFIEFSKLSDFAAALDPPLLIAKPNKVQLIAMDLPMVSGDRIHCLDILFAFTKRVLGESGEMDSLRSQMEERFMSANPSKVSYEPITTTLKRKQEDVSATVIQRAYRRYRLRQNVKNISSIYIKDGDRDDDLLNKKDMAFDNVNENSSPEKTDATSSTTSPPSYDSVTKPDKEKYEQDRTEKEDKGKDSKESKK

As to `Cc1cccc(C)c1S(=O)(=O)CC[N+]1(Cc2ccccc2)CCCCCC1` [Compound 88A, 1-benzyl-1-(2-((2,6-dimethylphenyl)sulfonyl)ethyl) azepan-1-ium bromide], the IC50 in data set [1] is 3 to 10 µM; in data set [2] it was above 10 µM.

`CCC(C(=O)Nc1c(C)cccc1C)[N+]1(Cc2ccccc2)CCCCC1` (stereo not drawn) [Compound 6]: the IC50 in data set [1] is 0.3 to 1 µM; in data set [2], above 10 µM.

With `Cc1cccc(C)c1NCC[N+]1(Cc2ccccc2)CCCCCC1` [Compound 84A, 1-benzyl-1-(2-((2,6-dimethylphenyl)amino)ethyl) azepan-1-ium trifluoroacetate], the “PAMPA (10^−6 cm/s)” value in data set [3] was “+ (“+” (<0.1 10^−6 cm/s))”. For the same molecule, the IC50 in data set [1] fell in the range of 3 to 10 µM.

`Cc1cccc(C)c1NC(=O)C[N+]1(Cc2ccccc2)CCCC1` [Compound 5]: the figures for the IC50 in data set [1] and in data set [2] were 1 to 3 µM and above 10 µM, respectively.

Turning to `Cc1cccc(C(F)(F)F)c1NC(=O)C[N+]1(Cc2ccccc2)CCCCCC1` [Compound 73A], the inhibition at 3 µM in data set [4] is above 90%. Besides, in data set [1], the IC50 lay within 0.3 to 1 µM.

Take `Cc1cccc(C)c1NC(=O)C[N+]1(Cc2ccccc2)CCCCC1` [Compound 4]: the IC50 is 0.3 to 1 µM in data set [1] and above 10 µM in data set [2].

Consider `Cc1cccc(C(=O)N(C)C)c1NC(=O)C[N+]1(Cc2ccccc2)CCCCCC1.[Br-]` [Compound 78A], for which the “PAMPA (10^−6 cm/s)” value in data set [3] is “+ (“+” (<0.1 10^−6 cm/s))”. Also, in data set [1], the IC50 lay within 3 to 10 µM.

Regarding `Cc1cccc(C)c1NC(=O)C[N+]1(Cc2ccccc2)CCCC(C(=O)NC2CCCC2)C1.[Br-]` (stereo not drawn) [Compound 60A], the “PAMPA (10^−6 cm/s)” value in data set [3] is reported as “+ (“+” (<0.1 10^−6 cm/s))”. The IC50 in data set [1] was 1 to 3 µM.

With `Cc1cccc(C)c1NC(=O)C[N+]1(Cc2ccccc2)CCCC(C(=O)NC2CCCCC2)C1.[Br-]` (stereo not drawn) [Compound 61A], the “PAMPA (10^−6 cm/s)” value in data set [3] is “+ (“+” (<0.1 10^−6 cm/s))”. In data set [1], the IC50 lay in the range of 3 to 10 µM.

Turning to `Cc1cccc(C)c1NC(=O)C[N+]1(Cc2ccccc2)CCCC(C(=O)OCC(C)C)C1.[Br-]` (stereo not drawn) [Compound 48A], the “PAMPA (10^−6 cm/s)” value in data set [3] was “+ (“+” (<0.1 10^−6 cm/s))”. Further, the IC50 in data set [1] is 1 to 3 µM.

`Cc1cccc(C)c1OCC[N+]1(Cc2ccccc2)CCCCCC1` [Compound 85A, 1-benzyl-1-(2-(2,6-dimethylphenoxy)ethyl) azepan-1-ium bromide]: the inhibition at 3 µM in data set [4] is above 90%. Moreover, in data set [4] (% inhibition at 10 μM test concentration), the inhibition at 10 µM is above 95%. Further, the IC50 in data set [1] is 1 to 3 µM.

For the molecule `Cc1cccc(O)c1NC(=O)C[N+]1(Cc2ccccc2)CCCCCC1.[Br-]` [Compound 79A, 1-benzyl-1-(2-((2-hydroxy-6-methylphenyl)amino)-2-oxoethyl) azepan-1-ium formate], the “PAMPA (10^−6 cm/s)” value in data set [3] is on record as “+ (“+” (<0.1 10^−6 cm/s))”. In addition, in data set [1], the IC50 lay in the range of 1 to 3 µM.

As for `Cc1cccc(C)c1NC(=O)C[N+]1(Cc2ccccc2)CCCC(C(=O)OC2CCCC2)C1.[Br-]` (stereo not drawn) [Compound 50A], the “PAMPA (10^−6 cm/s)” value in data set [3] is given as “+ (“+” (<0.1 10^−6 cm/s))”. Also, the IC50 in data set [1] lay within 1 to 3 µM.
